IC50 data for four compounds are collected here from patent publication US5179206A, “Substituted 3-aminosydnone imines” (Cassella Aktiengellschaft, priority 1989, dated 1993).

Structures can show the parent of a compound that is named as a salt. Where two headings read alike, the source gives them in different places.

In this assay the test system is pulmonary artery of the guinea pig (spiral strips). Kind of assay: Relaxant effect on potassium-depolarized, CaCl2-contracted spiral strips of the pulmonary artery of the guinea pig (modified method of Godfraind and Kaba and of Schuman et al). The settings on record: depolarized using 40 mmol/l of potassium, contraction induced by 0.5 mmol/l of CaCl2, average value of 4 to 6 vessel strips, read-out: IC50: concentration of the test substance which inhibits the contraction by 50%. As to the method:
The pharmacological action of the compounds of the formula I was determined by a modified method of Godfraind and Kaba (Arch.Int. Pharmacodyn. Ther. 196, (Suppl.) 35 to 49, 1972) and of Schuman et al (Naunyn-Schmiedeberg's Arch. Pharmacol. 289, 409 to 418, 1975). In this connection, spiral strips of the pulmonary artery of the guinea pig are depolarized using 40 mmol/l of potassium after equilibration in calcium-free Tyrode solution. An addition of 0.5 mmol/l of CaCl2 then induces a contraction. The relaxant effect of the test substance is determined by cumulative addition in semilogarithmic graduated concentrations. The concentration of the test substance which inhibits the contraction by 50% (=IC50, mol/l) is determined from the concentration-effect curve (abscissa: -log mol/l of test substance, ordinate: % inhibition of the maximum contraction, average value of 4 to 6 vessel strips).

`CCCCCCc1c(=N)o[n-][n+]1N1C(C)CCCC1C` (stereo not shown) [Example 3, 3-(2,6-Dimethylpiperidino)-4-hexylsydnone imine hydrochloride]: the IC50 (Cavia porcellus) amounted to 2.4 µM.
The same measure, in the same setting: with `CC1CCCC(C)N1[n+]1[n-]oc(=N)c1Cc1ccccc1` (stereo not shown) [Example 6, 4-Benzyl-3-(2,6-dimethylpiperidino)sydnone imine hydrochloride] the figure was 2.3 µM; with `CC1CCCC(C)N1[n+]1[n-]oc(=N)c1CCc1ccccc1` (stereo not shown) [Example 8, 3-(2,6-Dimethylpiperidino)-4-(2-phenylethyl)sydnone imine hydrochloride], 2 µM.
On to `CCOC(=O)[N-]c1cn(N2CCOCC2)n[o+]1` [Molsidomine, N-ethoxycarbonyl-3-morpholino-sydnone imine, reference compound], for which the IC50 was above 300 µM.
